# Results reported in patent US20030008024A1, “Therapeutic composition of herbal extracts and the uses thereof” (Advanced Herbal Therapeutics, Inc., priority 2001, published 2003).
# Read-outs that look alike come from different tables or passages of the source.
# How the values were obtained:
# [1] = system: hemolysin antibody formation; assay: Hemolysin antibody formation in SRBC-immunized normal mice; format: in vivo, mice (NIH, ICR, KM); details: dosing day 0˜7; for Hymolysin Antibody / inhibition at 20 mg/kg: 0.02 g/kg
# Description: Totals of 150 mice (50 NIH mice, 50 ICR mice and 50 KM mice) weighing 18-22 g with equal sex distribution were divided into 10 groups, each of which was immunized with 0.2 ml 5% sheep red blood cells (SRBC) i.p. once. AHT-323 was given from d0 to d6. Seven days after immunization, mice were sacrificed and blood was taken from the eyeball. Assay for hemolysin antibody formation was performed and its inhibition rate was evaluated.
# [2] = system: CD4 and CD8; assay: CD4 and CD8 content of mouse splenocytes (biotin-labeled ELISA); format: in vivo, ICR mice; details: 0.02 g/kg once daily ten days
# Description: (§1) Totals of 50 ICR mice weighing 18˜22 g with equal sex distribution were randomly divided into five groups. The mice were administrated orally with different doses of AHT-323 or positive control drug respectively, once daily for consecutive ten days. 24 hours after the last dosing, the mice were sacrificed and splenocyte suspension was prepared for measurement of CD4 and CD8 content and NK cells activity.
# [3] = system: IL-1; assay: IL-1 activity in peritoneal macrophages after oral dosing (radio-ELISA); format: in vivo, NIH mice; details: 0.02 g/kg p.o. once daily 10 days
# Description: (§2) Totals of 50 NIH mice weighing 18-22g with equal sex distribution were divided into 5 groups and administered p.o. with different doses of AHT-323 or cyclophosphamide once daily for 10 days. 24h after the last dosing, mice were sacrificed and peritoneal macrophage and spleen cells suspension were prepared to measure IL-1 and IL-6 activity, respectively.
# Method of testing IL-1: IL-1 activity in peritoneal macrophages was measured with radio-ELISA and the result was shown in Table 18.
# [4] = system: NK cells; assay: NK cells activity of mouse splenocytes (colorimetry); format: in vivo, ICR mice; details: 0.02 g/kg once daily ten days
# Description: as §1
# [5] = system: IL-6; assay: IL-6 activity in splenocytes after oral dosing (ELISA); format: in vivo, NIH mice; details: 0.02 g/kg p.o. once daily 10 days
# Description: as §2
# [6] = system: IL-2; assay: IL-2 activity after oral dosing (IL-2 dependent CTLL cells); format: in vivo, ICR mice; details: 0.02 g/kg once daily 10 days
# Description: (§3) Total of 50 ICR mice weighing 18˜22 g with equal sex were divided into 5 groups. The mice were administrated orally with different doses of AHT-323 or control (0.5% tragacanth) once daily for 10 days. 24 hours after the last dosing, the peritoneal macrophage suspensions were prepared to measure TNFα content and IL-2 activity.
# The IL-2 activity of macrophage was measured with IL-2 dependent CTLL cells by ELISA.
# [7] = system: plaque forming cells (PFC) and serum IgM of AA mice; assay: Humoral immunity of AA mice (PFC, IgM); format: in vivo, NIH mice; details: 0.020 g/kg
# Description: An experimental model of adjuvant arthritis was established in NIH mice weighing 20±2 g by intradermal injection of 0.05 ml Freund's Complete Adjuvant (FCA) to the planter of hind paw. Three weeks later, the mice were treated with different dose of AHT-323 for 5 days. At the same time, they were sensitized with 0.5 ml 10% SRBC i.p. The mice were sacrificed 5 days later. The spleen cells were prepared and the plaque forming cells (PFC) were measured, the serum was prepared and IgM was determined.
# [8] = system: DTH of mice induced by DNFB; assay: Delayed type hypersensitivity of mouse ear induced by DNFB; format: in vivo, NIH mice
# Description: Totals of 50 NIH mice with equal sex were randomly divided into 5 groups. Each mouse was sensitized with 0.025 ml DNBF (1%) at day 0. Five days later […], 0.01 ml DNFB was pasted as aggression on the right ear. The mice were sacrificed 24 hours later and the weight of left and right ears were measured, the difference of which was used to evaluate reaction intensity of the delayed type hypersensitivity (DTH) of the mice.
# In this experiment, AHT-323 was given for consecutive six days (0˜5 days) from the day when the mice were first sensitized with DNFB.
# Totals of 60 NIH mice were used. AHT-323 treatments were given at different intervals as the following: from d-2 (2 days before first sensitizing) to Day 0 (first sensitization day), from Day-2 to Day 2 (2 days after first sensitizing), from Day-2 to Day5, and from Day 0 to Day 4, respectively. The swelling rate of mouse ear was determined.
# Another 50 NIH mice were used to compare AHT-323 with cyclophosphamide or cytoxan (Cy) on the effects on DTH of mice. The mice were treated with either AHT-323 or Cy alone or both at different intervals.
# [9] = system: splenocyte lymphocytes stimulated by Con A; assay: Lymphocyte blastogenesis of normal mice stimulated by Con A (3H-TdR); format: in vivo, NIH mice; details: 0.02 g/kg p.o. once daily 10 days
# Description: 50 NIH mice with equal sex distribution were randomly divided into 5 groups. The mice were treated p.o. with different doses of AHT-323 or positive control drug once daily for 10 days. Twenty four hours after the last dosing, mice were sacrificed. The splenocytes were obtained and Con A (Concanavalin) was used to stimulate lymphocytes for transformation. ^3H-TdR adulteration method was used and the result was shown in table 20.
# [10] = system: TNFα; assay: TNFα content of peritoneal macrophage suspension after oral dosing (ELISA); format: in vivo, ICR mice; details: 0.02 g/kg once daily 10 days
# Description: as §3
# An ELISA assay was performed using anti-TNFα monoclonal antibody. The TNFα concentration was calculated based on the OD value at 450 nm.
# [11] = system: writhing reaction of mice; assay: Writhing reaction induced by HAC; format: in vivo, Kunming mice; details: 0.01 g/kg once daily 3 days; first 20 minutes
# Description: A total of 50 Kunming mice weighing 18-22 g with equal sex distribution were randomly divided into 5 groups. The mice were treated p.o. with different doses of AHT-323, tragacanth, or Morphine hydrochloride once daily for 3 days. One hour later, each mouse was treated with 0.2 ml saline containing 0.7% HAC, i.p. The time to first writhing and the number of writhing during the first 20 minutes were evaluated.
# [12] = Mus musculus, 0 h, read-out: Inhibition rate (%)
# [13] = Table 11, 0.1×3 g/kg, dosing day 0, 2, 4 each
structure (smiles),measurement,setting,value
"O=P1(N(CCCl)CCCl)NCCCO1 (stereo not drawn) [Cy, cyclophosphamide]",Hymolysin Antibody,[1]; ICR mice,28 ± 7
same,Hymolysin Antibody,[1]; KM mice,46 ± 18
same,inhibition at 20 mg/kg,"[1]; Mus musculus, 0 h, ICR mice, read-out: Inhibition Rate (%)",77.4%
same,inhibition at 20 mg/kg,"[1]; Mus musculus, 0 h, KM mice, read-out: Inhibition Rate (%)",81.1%
same,inhibition at 250 mg/kg,"[1]; Mus musculus, 0 h, NIH mice, 0.25 g/kg, read-out: Inhibition Rate (%)",75.4%
same,Hemolysin Antibody (HC50),"[1]; NIH mice, 0.25 g/kg",33 ± 8
same,CD4 (%),[2],11.50 ± 2.50 %
same,CD4/CD8,[2],2.91 ± 0.53
same,CD8 (%),[2],4.10 ± 1.20 %
same,IL-1,[3],44.5 ± 7.7 ng/mL
same,NK Activity,[4],23.10 ± 3.66
same,IL-6,[5],49.6 ± 6.7 IU/ml
same,IL-2,[6],10.1 ± 3.0 IU/ml
same,IgM (Log2),[7],6.950 ± 0.597 Log2
same,PFC (OD415),[7],0.835 ± 0.015 OD415
same,inhibition at 20 mg/kg,[8]; [12],64.9%
same,inhibition at 25 mg/kg,[8]; [12],29%
same,inhibition at 250 mg/kg,"[8]; Mus musculus, read-out: Inhibition rate (%)",-10.6%
same,% of ear Swelling,"[8]; Table 9, 0.020 g/kg, dosing day 0˜5",5.4 ± 2.6%
same,% of ear Swelling,"[8]; Table 10, 0.025 g/kg, dosing day 0˜5",32.8 ± 7.9%
same,% of ear Swelling,[8]; [13],24.10 ± 7.28%
same,Inhibition rate (%),[8]; [13],39.8%
same,% of ear Swelling,"[8]; Table 11, 0.25 g/kg, dosing day −3",44.3 ± 7.9%
same,Cpm,[9],9922 ± 1145 Cpm
same,Stimulate Index,[9],13.06 ± 2.28
same,TNFα,[10],42.2 ± 9.6 pg/mL
"CN1CC[C@]23c4c5ccc(O)c4O[C@H]2[C@@H](O)C=C[C@H]3[C@H]1C5.Cl [Morphine, Morphine hydrochloride]",Torsion number,[11],0.0 ± 0.0
